Results reported in publication PMC4194234 (Psychopharmacology, 2014).
Like-named read-outs stand apart in the source and are kept apart here.

Assays:
5-HT2A receptor [1] = target: T1, 5-HT2A receptor (Homo sapiens, UniProt P28223); test: cell-based; type: cell-based; settings: for 5-HT2A agonist activity in calcium mobilization assay (in words) / 5-HT2A Emax: HEK293; for 5-HT2A Emax: calcium mobilization, mean ± SEM, three experiments in duplicate; for Emax: HEK293, read-out: 5-HT2A Emax
Target sequence in this assay (P28223 whole entry): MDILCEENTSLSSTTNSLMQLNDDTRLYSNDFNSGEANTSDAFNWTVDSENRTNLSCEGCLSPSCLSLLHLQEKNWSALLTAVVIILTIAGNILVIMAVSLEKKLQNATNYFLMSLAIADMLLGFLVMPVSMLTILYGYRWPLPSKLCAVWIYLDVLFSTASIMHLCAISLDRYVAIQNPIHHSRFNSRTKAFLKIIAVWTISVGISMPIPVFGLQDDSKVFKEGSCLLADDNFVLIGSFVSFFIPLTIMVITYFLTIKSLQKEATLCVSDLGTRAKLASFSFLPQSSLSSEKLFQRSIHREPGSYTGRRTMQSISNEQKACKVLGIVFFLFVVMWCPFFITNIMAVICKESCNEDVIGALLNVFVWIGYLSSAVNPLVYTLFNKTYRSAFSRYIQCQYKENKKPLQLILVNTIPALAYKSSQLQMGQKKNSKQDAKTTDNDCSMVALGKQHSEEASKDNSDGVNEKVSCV

5-HT1A receptor = target: T2, 5-HT1A receptor (Homo sapiens, UniProt P08908); test: 5-HT1A calcium mobilization assay in Gα16-CHO cells; type: cell-based; settings: for 5-HT1A Emax: calcium mobilization, Gα16-CHO, mean ± SEM, three experiments in duplicate
T2 sequence (P08908 1-422): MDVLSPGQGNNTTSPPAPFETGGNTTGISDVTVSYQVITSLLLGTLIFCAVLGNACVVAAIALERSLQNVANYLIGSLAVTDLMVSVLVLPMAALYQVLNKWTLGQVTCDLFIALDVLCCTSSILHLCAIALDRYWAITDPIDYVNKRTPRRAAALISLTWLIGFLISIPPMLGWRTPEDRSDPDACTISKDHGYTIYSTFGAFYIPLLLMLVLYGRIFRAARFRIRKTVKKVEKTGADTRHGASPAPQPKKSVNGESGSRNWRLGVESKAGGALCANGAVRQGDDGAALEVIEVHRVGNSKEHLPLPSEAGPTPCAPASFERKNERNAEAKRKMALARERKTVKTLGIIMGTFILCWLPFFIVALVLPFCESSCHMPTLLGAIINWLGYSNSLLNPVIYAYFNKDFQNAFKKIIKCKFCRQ

5-HT2A receptor [2] = target: T1, 5-HT2A receptor; test: cell-based; type: cell-based; settings: for 5-HT2A β-arrestin Emax: β-arrestin recruitment, mean ± SEM, three experiments in duplicate; for 5-HT2A β-arrestin Emax / 5-HT2A β-arrestin recruitment activity (in words): CHOk1; for Emax: CHO-K1, read-out: 5-HT2A β-arrestin Emax; for 5-HT2A β-arrestin recruitment activity (in words): screened at 10 µM
Target sequence in this assay (P28223 whole entry): as the sequence (P28223 whole entry) above
Target sequence in this assay (P32121 whole entry, further chain): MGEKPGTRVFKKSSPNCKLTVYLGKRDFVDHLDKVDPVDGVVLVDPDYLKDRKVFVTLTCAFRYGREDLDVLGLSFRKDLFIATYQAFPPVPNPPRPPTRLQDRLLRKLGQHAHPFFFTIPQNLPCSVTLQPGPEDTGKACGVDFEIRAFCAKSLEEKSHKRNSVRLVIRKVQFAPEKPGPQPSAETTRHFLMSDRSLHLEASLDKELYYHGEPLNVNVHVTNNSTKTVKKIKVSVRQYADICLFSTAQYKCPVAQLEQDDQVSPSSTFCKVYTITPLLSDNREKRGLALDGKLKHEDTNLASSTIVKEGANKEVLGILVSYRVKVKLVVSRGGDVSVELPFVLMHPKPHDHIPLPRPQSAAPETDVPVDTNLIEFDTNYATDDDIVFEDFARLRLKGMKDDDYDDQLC

humans = settings: tabulated from anecdotal reports in TiHKAL, ref Shulgin and Shulgin 1997; cited from earlier work
SERT [3] = target: T3, SERT (Rattus norvegicus, UniProt P31652); test: SERT-mediated release, rat brain synaptosomes; settings: for 5-HT releasing activity at SERT (in words): rat brain synaptosomes
[4] = target: T4, Norepinephrine Transporter (NET) (Rattus norvegicus, UniProt Q63380); test: NET-mediated release, rat brain synaptosomes; type: biochemical
[5] = target: T5, Dopamine Transporter (DAT) (Rattus norvegicus, UniProt P23977); test: DAT-mediated release, rat striatum synaptosomes
[6] = target: T5, Dopamine Transporter (DAT); test: [3H]DA uptake inhibition, rat striatum synaptosomes
SERT [7] = target: T3, SERT; test: [3H]5-HT uptake inhibition, rat brain synaptosomes; settings: for 5-HT uptake inhibitor activity at SERT (in words): rat brain synaptosomes
[8] = target: T4, Norepinephrine Transporter (NET); test: [3H]NE uptake inhibition, rat brain synaptosomes; type: biochemical

T4 sequence (Q63380 1-617): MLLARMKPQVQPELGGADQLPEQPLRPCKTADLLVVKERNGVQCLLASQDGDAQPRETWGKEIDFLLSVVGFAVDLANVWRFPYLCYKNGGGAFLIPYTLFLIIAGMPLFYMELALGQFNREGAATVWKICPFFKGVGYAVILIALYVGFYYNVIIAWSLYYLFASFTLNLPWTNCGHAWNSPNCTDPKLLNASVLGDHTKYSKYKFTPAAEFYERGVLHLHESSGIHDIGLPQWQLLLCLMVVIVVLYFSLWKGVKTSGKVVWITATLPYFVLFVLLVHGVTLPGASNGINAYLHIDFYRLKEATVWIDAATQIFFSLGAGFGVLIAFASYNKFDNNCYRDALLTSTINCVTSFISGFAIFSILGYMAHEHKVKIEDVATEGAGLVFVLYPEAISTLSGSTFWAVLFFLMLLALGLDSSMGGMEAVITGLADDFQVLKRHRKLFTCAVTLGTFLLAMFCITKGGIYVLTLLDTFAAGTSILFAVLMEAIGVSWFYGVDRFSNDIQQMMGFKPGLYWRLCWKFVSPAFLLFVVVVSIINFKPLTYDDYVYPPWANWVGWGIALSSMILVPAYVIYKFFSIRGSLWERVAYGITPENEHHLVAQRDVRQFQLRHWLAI
T5 sequence (P23977 whole entry): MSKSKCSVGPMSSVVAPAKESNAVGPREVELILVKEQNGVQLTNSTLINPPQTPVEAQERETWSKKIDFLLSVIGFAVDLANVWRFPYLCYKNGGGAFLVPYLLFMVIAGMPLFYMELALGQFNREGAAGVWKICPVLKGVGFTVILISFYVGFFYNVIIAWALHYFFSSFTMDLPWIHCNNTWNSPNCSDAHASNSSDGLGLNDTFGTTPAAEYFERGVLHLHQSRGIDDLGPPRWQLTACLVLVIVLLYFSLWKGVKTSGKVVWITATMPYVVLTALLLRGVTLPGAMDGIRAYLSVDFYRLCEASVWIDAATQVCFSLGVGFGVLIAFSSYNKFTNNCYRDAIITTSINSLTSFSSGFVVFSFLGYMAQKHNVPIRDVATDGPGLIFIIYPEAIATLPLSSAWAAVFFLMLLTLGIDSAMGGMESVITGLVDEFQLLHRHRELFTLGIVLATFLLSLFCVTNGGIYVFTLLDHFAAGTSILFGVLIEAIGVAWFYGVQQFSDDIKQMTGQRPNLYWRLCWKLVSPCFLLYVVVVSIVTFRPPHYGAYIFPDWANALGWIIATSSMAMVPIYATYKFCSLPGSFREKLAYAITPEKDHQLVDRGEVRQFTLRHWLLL
T3 sequence (P31652 whole entry): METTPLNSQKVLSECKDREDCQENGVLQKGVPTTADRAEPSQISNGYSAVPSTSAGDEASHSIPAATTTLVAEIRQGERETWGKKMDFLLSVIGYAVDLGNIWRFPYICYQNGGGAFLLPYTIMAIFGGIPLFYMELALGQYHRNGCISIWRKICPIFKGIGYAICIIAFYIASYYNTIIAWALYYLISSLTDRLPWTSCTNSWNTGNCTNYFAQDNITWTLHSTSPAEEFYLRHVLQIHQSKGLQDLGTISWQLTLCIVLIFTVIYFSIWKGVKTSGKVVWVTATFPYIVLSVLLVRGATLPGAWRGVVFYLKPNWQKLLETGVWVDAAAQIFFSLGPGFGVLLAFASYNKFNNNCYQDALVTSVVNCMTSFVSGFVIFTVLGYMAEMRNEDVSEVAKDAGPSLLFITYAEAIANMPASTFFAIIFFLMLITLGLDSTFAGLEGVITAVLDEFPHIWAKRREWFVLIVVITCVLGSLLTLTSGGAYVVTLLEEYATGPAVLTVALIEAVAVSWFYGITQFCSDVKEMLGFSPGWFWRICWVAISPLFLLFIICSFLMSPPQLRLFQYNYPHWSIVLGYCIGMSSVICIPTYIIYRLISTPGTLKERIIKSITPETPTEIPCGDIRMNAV

CCN(CC)CCc1c[nH]c2ccc(OC)cc12 [Compound 26]
5-HT2A agonist activity in calcium mobilization assay (in words) (5-HT2A receptor [1]): low nanomolar potency | 5-HT2A Emax (5-HT2A receptor [1]): 101 ± 0.8% | 5-HT1A Emax (5-HT1A receptor): 67 ± 2% | 5-HT2A β-arrestin Emax (5-HT2A receptor [2]): 64 ± 8% | Psychoactive Effects (humans): Auditory changes, negative experiences, anxiety

CCCN(CCC)CCc1c[nH]c2ccc(OC)cc12 [Compound 28]
5-HT2A agonist activity in calcium mobilization assay (in words) (5-HT2A receptor [1]): low nanomolar potency | 5-HT2A Emax (5-HT2A receptor [1]): 101 ± 3% | 5-HT1A Emax (5-HT1A receptor): 43 ± 5% | 5-HT2A β-arrestin Emax (5-HT2A receptor [2]): 68 ± 2% | Psychoactive Effects (humans): Comfortable at low doses, oscillating good and bad sounds, negative side dominated as buzz continues

CCNCCc1c[nH]c2ccc(OC)cc12 [Compound 18, 5-methoxy-N-ethyltryptamine]
Emax (5-HT2A receptor [1]): 112 ± 3% | EC50 (5-HT1A receptor): 0.262 ± 0.027 µM | EC50 (SERT [3]): 0.284 ± 0.0416 µM | 5-HT releasing activity at SERT (in words) (SERT [3]): releasers | EC50 [4]: > 10 µM | EC50 [5]: > 10 µM | EC50 (5-HT2A receptor [2]): 0.568 ± 0.174 µM | Emax (5-HT2A receptor [2]): 103 ± 12% | 5-HT2A β-arrestin recruitment activity (in words) (5-HT2A receptor [2]): fully efficacious

CNCCc1c[nH]c2ccccc12 [Compound 14, N-methyltryptamine]
EC50 (5-HT1A receptor): > 10 µM | EC50 (5-HT2A receptor [2]): > 10 µM | 5-HT2A β-arrestin recruitment activity (in words) (5-HT2A receptor [2]): inactive

COc1ccc2[nH]cc(CCN)c2c1 [Compound 25]
5-HT1A Emax (5-HT1A receptor): 66 ± 4% | Psychoactive Effects (humans): Not particularly active, possibly due to metabolism similar to 12

NCCc1c[nH]c2ccccc12 [Compound 12, Tryptamine]
5-HT releasing activity at SERT (in words) (SERT [3]): releasers | Emax (5-HT2A receptor [2]): 108 ± 16% | Psychoactive Effects (humans): Psychoactive, short acting due to metabolism, increased blood pressure, similar to LSD

CC(C)NCCc1c[nH]c2ccccc12 [Compound 20]
5-HT2A Emax (5-HT2A receptor [1]): 96 ± 3% | Psychoactive Effects (humans): Light-headed intoxicant, pleasant buzz

COc1ccc2[nH]cc(CCN(C(C)C)C(C)C)c2c1 [Compound 1, N,N-diisopropyl-5-methoxytryptamine]
5-HT2A agonist activity in calcium mobilization assay (in words) (5-HT2A receptor [1]): low nanomolar potency | Emax (5-HT2A receptor [1]): 109 ± 5% | EC50 (5-HT1A receptor): > 10 µM | IC50 [6]: > 10 µM | IC50 (SERT [7]): 0.646 ± 0.048 µM | Emax (5-HT2A receptor [2]): 124 ± 12% | Psychoactive Effects (humans): Erotic, senses distorted, short-lived, could not make intuitive leaps | IC50 [8]: > 10 µM

CCN(CC)CCc1c[nH]c2ccccc12 [Compound 19]
5-HT2A Emax (5-HT2A receptor [1]): 90 ± 6% | Fold more potent at SERT uptake inhibition than 5-MeO-DET (SERT [7]; DET versus 5-MeO-DET (26)): 10 fold | Psychoactive Effects (humans): Psychoactive, visuals, vertigo

CNCCc1c[nH]c2ccc(OC)cc12 [Compound 17]
5-HT2A Emax (5-HT2A receptor [1]): 84 ± 20% | 5-HT1A Emax (5-HT1A receptor): 72 ± 4% | 5-HT releasing activity at SERT (in words) (SERT [3]): releasers | 5-HT2A β-arrestin Emax (5-HT2A receptor [2]): 66 ± 9%

CCCN(CCC)CCc1c[nH]c2ccccc12 [Compound 21]
5-HT2A Emax (5-HT2A receptor [1]): 97 ± 3% | 5-HT2A β-arrestin Emax (5-HT2A receptor [2]): 63 ± 8% | Psychoactive Effects (humans): Intensely visual, long lasting, things appear fast, religious experiences

CN(C)CCc1c[nH]c2cccc(O)c12 [Compound 24, Psilocin]
Emax (5-HT2A receptor [1]): 76 ± 7% | IC50 [6]: > 10 µM | IC50 (SERT [7]): 0.662 ± 0.041 µM | Psychoactive Effects (humans): Very visual, lots of colors, better at night | IC50 [8]: > 10 µM

CC(C)N(CCc1c[nH]c2ccccc12)C(C)C [Compound 22]
5-HT2A Emax (5-HT2A receptor [1]): 110 ± 2% | Psychoactive Effects (humans): Auditory, not visual, heard voices, sounds had “golden spikes”, religious overtones

COc1ccc2[nH]cc(CCN(C)C)c2c1 [Compound 7, N,N-dimethyl-5-methoxytryptamine]
5-HT2A agonist activity in calcium mobilization assay (in words) (5-HT2A receptor [1]): low nanomolar potency | Emax (5-HT2A receptor [1]): 101 ± 4% | 5-HT1A Emax (5-HT1A receptor): 68 ± 3% | IC50 [6]: > 10 µM | IC50 (SERT [7]): 2.18 ± 0.222 µM | Emax (5-HT2A receptor [2]): 56 ± 6% | Psychoactive Effects (humans): Time distortions, stoned feeling, hallucinogenic at high doses | IC50 [8]: > 10 µM

COc1ccc2[nH]cc(CCN(C)C(C)C)c2c1 [Compound 2, N-isopropyl-N-methyl-5-methoxytryptamine]
5-HT2A agonist activity in calcium mobilization assay (in words) (5-HT2A receptor [1]): low nanomolar potency | Emax (5-HT2A receptor [1]): 101 ± 3% | EC50 (5-HT1A receptor): > 10 µM | IC50 [6]: > 10 µM | IC50 (SERT [7]): > 10 µM | 5-HT uptake inhibitor activity at SERT (in words) (SERT [7]): totally inactive | EC50 (5-HT2A receptor [2]): 0.566 ± 0.11 µM | Emax (5-HT2A receptor [2]): 82 ± 13% | Psychoactive Effects (humans): Fast onset, stimulates conceptual thought, depersonalization | IC50 [8]: > 10 µM

CN(C)CCc1c[nH]c2ccccc12 [Compound 6, N,N-dimethyltryptamine]
Emax (5-HT2A receptor [1]): 83 ± 0.4% | EC50 (SERT [3]): 0.114 ± 0.015 µM | EC50 [4]: 4.17 ± 0.317 µM | EC50 [5]: > 10 µM | EC50 (5-HT2A receptor [2]): > 10 µM | 5-HT2A β-arrestin recruitment activity (in words) (5-HT2A receptor [2]): inactive | Psychoactive Effects (humans): Heavy intoxicant and hallucinogen, visuals, intense colors

COc1ccc2[nH]cc(CCNC(C)C)c2c1 [Compound 27]
5-HT2A agonist activity in calcium mobilization assay (in words) (5-HT2A receptor [1]): low nanomolar potency | 5-HT2A Emax (5-HT2A receptor [1]): 101 ± 2% | 5-HT2A β-arrestin Emax (5-HT2A receptor [2]): 99 ± 6%

CC(C)N(C)CCc1c[nH]c2ccccc12 [Compound 23]
5-HT2A Emax (5-HT2A receptor [1]): 74 ± 5% | 5-HT uptake inhibitor activity at SERT (in words) (SERT [7]): totally inactive | Psychoactive Effects (humans): Mild hallucinations, stimulant, fast onset, psychedelic

CC(N)Cc1c[nH]c2ccccc12 (stereo not drawn) [Compound 13]
Psychoactive Effects (humans): Psychedelic but varied, fast/slow onset, good/bad experiences, long lasting, no visuals, speed-like, tachycardia, jaw clenching

CN(C)CCc1c[nH]c2ccc(O)cc12 [Compound 16, N,N-dimethyl-5-hydroxytryptamine]
EC50 (5-HT1A receptor): 0.366 ± 0.067 µM | EC50 [4]: > 10 µM | EC50 [5]: > 10 µM | Psychoactive Effects (humans): Some visuals (lines and dots), tightness in chest, nausea, breathing issues, mind feels crowded
